Laboratory results: patent publication US20130219529A1, “PROBE FOR A HAIR CELL, AND LABELLING METHOD FOR A HAIR CELL USING THE PROBE FOR A HAIR CELL” (CANON KABUSHIKI KAISHA, priority 2008, published 2013)

What was measured:
[1] = tested on: hair cell (neuromast) of Zebrafish; assay: Staining of hair cell (neuromast) of Zebrafish juveniles with probe, fluorescence stereomicroscope image visually evaluated; assay type: in vivo; design: Fluorescence intensity: key to the marks not given beside the values; conditions: dye concentration 1 μg/mL; for Pattern of the neuromast stained (FIGS. 1 to 3): Zebrafish juveniles, in words; for Fluorescence intensity / Staining pattern: 1 hour, Zebrafish juveniles Day 7 after fertilization
Description: A staining compound (1) was dissolved in DMSO to prepare a stock solution at a concentration of 1 mg/mL. The stock solution was diluted with distilled water to prepare a hair cell staining solution 1 having a dye concentration of 1 μg/mL. Further, Egg Water was prepared by dissolving artificial seawater SEALIFE (manufactured by Marinetech Co., Ltd.) in distilled water at a concentration of 60 mg/L. Five juveniles (embryos on Day 7 after fertilization) of Zebrafish were placed into any one of wells of a 24-well multiwell plate together with feeding water. The feeding water was discharged and 1 mL of the hair cell staining solution 1 was added. After the whole had been left to stand for 1 hour, the hair cell staining solution 1 in the well was discharged and replaced by 1 mL of fresh Egg Water. In addition, such an operation that Egg Water was discharged and replaced by 1 mL of fresh Egg Water was repeated twice. One of the juveniles was taken out from the well onto a dish, the motion of the juvenile was restricted by addition of methylcellulose, and a fluorescence image was captured with a fluorescence stereomicroscope. MZ16FA manufactured by Leica Microsystems K.K. was used as a stereoscopic microscope.
An image pickup unit (a digital camera DP72 for a microscope manufactured by Olympus Corporation) of a fluorescence stereomicroscope was remodeled by removing an IR cut filter so as to capture a fluorescence image in a near-infrared wavelength region.

[2] = Excitation and fluorescence emission wavelength measured with fluorescence spectrophotometer; assay type: physicochemical; conditions: aqueous solution, 10 mg/mL DMSO solution diluted 500-fold with purified water

| Excitation wavelength λex [2] | Fluorescence emission wavelength λem [2] | SMILES | Pattern of the neuromast stained (FIGS. 1 to 3) [1] | Fluorescence intensity [1] | Staining pattern [1] |
| --- | --- | --- | --- | --- | --- |
| – | – | O=S(=O)(O)CCN1/C(=C\C=C\c2oc3ccc(-c4ccccc4)cc3[n+]2CCS(=O)(=O)O)Oc2ccc(-c3ccccc3)cc21 [Staining compound 25] | a portion with a smaller neuromast is selectively stained | – | – |
| – | – | CCN1C=C/C(=C/C=C/c2oc3ccccc3[n+]2CC)c2ccccc21 [Staining compound 50] | a portion with a bigger neuromast is selectively stained | – | – |
| – | – | COc1ccc(N2c3ccc(/C=C/C4=[N+](C)c5ccccc5C4(C)C)cc3C3CCCC32)cc1 (stereo not drawn) [Staining compound 53] | both a portion with a bigger neuromast and a portion with a smaller neuromast are simultaneously stained | – | – |
| 570 nm | 657 nm | O=C(O)C[n+]1c(/C=C/c2ccc3c(c2)C2CCCC2N3c2ccc(C=C(c3ccccc3)c3ccccc3)cc2)oc2ccccc21 (stereo not drawn) [compound 1] | – | +++ | – |
| 401 nm | 516 nm | COc1ccc2cc(N3c4ccc(/C=C/c5sc6ccccc6[n+]5CC(=O)O)cc4C4CCCC43)ccc2c1 (stereo not drawn) [compound 4] | – | +++ | – |
| 545 nm | 636 nm | O=C(O)C[n+]1c(/C=C/c2ccc3c(c2)C2CCCC2N3c2ccccc2)sc2ccccc21 (stereo not drawn) [compound 6] | – | +++ | – |
| 560 nm | 677 nm | COc1ccc(N2c3ccc(/C=C/c4sc5ccccc5[n+]4CC(=O)O)cc3C3CCCC32)cc1 (stereo not drawn) [compound 8] | – | +++ | – |
| 566 nm | 611 nm | O=C(O)C[n+]1c(/C=C/c2ccc3c(c2)C2CCCC2N3Cc2ccccc2)sc2ccccc21 (stereo not drawn) [compound 15] | – | +++ | – |
| 459 nm | 564 nm | CCC(=C\c1oc2ccc(-c3ccccc3)cc2[n+]1CC)/C=C1/Oc2ccc(-c3ccccc3)cc2N1CC [compound 16] | – | +++ | S |
| 470 nm | 558 nm | O=S(=O)(O)CCN1/C(=C\C=C\c2oc3ccc(-c4ccccc4)cc3[n+]2CCS(=O)(=O)O)Oc2ccc(-c3ccccc3)cc21 [compound 25] | – | +++ | S |
| 429 nm | 503 nm | CC(=C\c1oc2ccccc2[n+]1CCC(=O)O)/C=C1/Oc2ccccc2N1CCC(=O)O [compound 28] | – | +++ | – |
| 563 nm | 569 nm | CCC(=C\c1sc2ccccc2[n+]1CC)/C=C1/Sc2ccccc2N1CC [compound 39] | – | +++ | – |
| 344 nm | 381 nm | CCC(=C\c1sc2c3ccccc3ccc2[n+]1CC)/C=C1/Sc2c(ccc3ccccc23)N1CC [compound 40] | – | +++ | – |
| 473 nm | 564 nm | CN1/C(=C\C=C\C2=[N+](C)c3ccccc3C2(C)C)C(C)(C)c2ccccc21 [compound 43] | – | +++ | – |
| 560 nm | 628 nm | CCN1/C(=C\C(C)=C\c2sc3ccccc3[n+]2CC)Sc2ccccc21 [compound 45] | – | +++ | – |
| 354 nm | 469 nm | CCN1/C(=C\C(C)=C\c2sc3c4ccccc4ccc3[n+]2CC)Sc2c1ccc1ccccc21 [compound 47] | – | +++ | – |
| 571 nm | 620 nm | CCN1C=C/C(=C/C=C/c2oc3ccccc3[n+]2CC)c2ccccc21 [compound 50] | – | +++ | – |
| 611 nm | 720 nm | CC1(C)C(/C=C/c2ccc3c(c2)C2CCCC2N3c2ccc(C=C(c3ccccc3)c3ccccc3)cc2)=[N+](CCC(=O)O)c2ccccc21 (stereo not drawn) [compound 51] | – | +++ | S |
| 614 nm | 669 nm | COc1ccc(N2c3ccc(/C=C/C4=[N+](C)c5ccccc5C4(C)C)cc3C3CCCC32)cc1 (stereo not drawn) [compound 53] | – | +++ | – |
| 480 nm | 509 nm | O=S(=O)(O)c1ccccc1-c1c2cc/c(=N/CCO)cc-2oc2cc(NCCO)ccc12 [compound 58] | – | +++ | – |
| 509 nm | 578 nm | CCC[N+](CCC)=c1ccc2c(-c3ccccc3S(=O)(=O)O)c3ccc(Nc4c(C)cccc4C)cc3oc-2c1.[Na+] [compound 60] | – | +++ | – |
| 490 nm | 560 nm | CCCC/N=c1/ccc2c(-c3ccccc3S(=O)(=O)O)c3ccc(NCCCC)cc3oc-2c1 [compound 63] | – | +++ | – |
| 750 nm | 780 nm | CCN1/C(=C/C=C/C=C/C=C/C2=[N+](CC)c3ccccc3C23CCCCC3)C2(CCCCC2)c2ccccc21 [compound 67] | – | +++ | – |
| 730 nm | 760 nm | CN1/C(=C/C=C/C=C/C=C/C2=[N+](C)c3ccccc3C2(C)C)C(C)(C)c2ccccc21 [compound 68] | – | +++ | – |
| 670 nm | 700 nm | CN1\C(=C/C=C/C=C/C2=[N+](C)c3ccc4ccccc4c3C2(C)C)C(C)(C)c2c1ccc1ccccc21 [compound 69] | – | +++ | – |
| 660 nm | 690 nm | CCN1C=C/C(=C\C=c2\s/c(=C/c3sc4ccccc4[n+]3CC)n(CC)c2=O)c2ccccc21 [compound 70] | – | +++ | – |

| SMILES | Excitation wavelength λex [2] | Fluorescence emission wavelength λem [2] | Pattern of the neuromast stained (FIGS. 1 to 3) [1] | Fluorescence intensity [1] | Staining pattern [1] |
| --- | --- | --- | --- | --- | --- |
| CC/N=c1\cc2oc3cc(NCC)c(C)cc3c(-c3ccccc3C(=O)OCC)c-2cc1C [compound 54] | 528 nm | 550 nm | – | +++ | – |
| CCCCNS(=O)(=O)c1ccc(-c2c3ccc(=[N+](CC)CC)cc-3oc3cc(N(CC)CC)ccc23)c(S(=O)(=O)O)c1.[Na+] [compound 57] | 570 nm | 589 nm | – | +++ | – |
